Assay results as given in ChEMBL document CHEMBL1139622, “Discovery of potent and selective orally bioavailable beta-substituted phenylalanine derived dipeptidyl peptidase IV inhibitors” (Bioorg Med Chem Lett, 2005).

Key:
[1] = target: Dipeptidyl peptidase 4 (Homo sapiens, UniProt P27487)
Description: Inhibitory concentration against dipeptidylpeptidase IV

[2] = target: Dipeptidyl peptidase 9 (Homo sapiens, UniProt Q86TI2)
Description: Inhibitory concentration against dipeptidylpeptidase 9

[3] = target: Dipeptidyl peptidase 2 (Homo sapiens, UniProt Q9UHL4)
Description: Inhibitory concentration against dipeptidylpeptidase II (QPP)

[4] = Half-life in rat; assay type: ADME; conditions: in vivo
[5] = Plasma clearance in rat; assay type: ADME, organism-based; conditions: read-out: Clp
[6] = in vivo; conditions: rat
[7] = target: Dipeptidyl peptidase 8 (Homo sapiens, UniProt Q6V1X1)
Description: Inhibitory concentration against dipeptidylpeptidase 8

[8] = target: T1, Dipeptidyl peptidase 4 (Mus musculus, UniProt P28843); experiment: Inhibitory concentration against mouse dipeptidylpeptidase IV in presence of 3% mouse serum
[9] = target: T1, Dipeptidyl peptidase 4; experiment: Inhibitory concentration against mouse dipeptidylpeptidase IV in presence of 15% mouse serum
[10] = target: T1, Dipeptidyl peptidase 4; experiment: Inhibitory concentration against mouse dipeptidylpeptidase IV in presence of 50% mouse serum
[11] = Half-life in dog; assay type: ADME, Canis lupus familiaris; conditions: in vivo
[12] = Half-life in rhesus monkey; assay type: ADME; conditions: cercopithecidae, in vivo
[13] = Plasma clearance in dog; assay type: ADME, organism-based, Canis lupus familiaris; conditions: read-out: Clp
[14] = Plasma clearance in rhesus monkey; assay type: ADME, organism-based; conditions: cercopithecidae, read-out: Clp
[15] = Half -life in rat; assay type: ADME; conditions: in vivo

Sequence of Dipeptidyl peptidase 4 (Homo sapiens, UniProt P27487) (P27487 whole entry): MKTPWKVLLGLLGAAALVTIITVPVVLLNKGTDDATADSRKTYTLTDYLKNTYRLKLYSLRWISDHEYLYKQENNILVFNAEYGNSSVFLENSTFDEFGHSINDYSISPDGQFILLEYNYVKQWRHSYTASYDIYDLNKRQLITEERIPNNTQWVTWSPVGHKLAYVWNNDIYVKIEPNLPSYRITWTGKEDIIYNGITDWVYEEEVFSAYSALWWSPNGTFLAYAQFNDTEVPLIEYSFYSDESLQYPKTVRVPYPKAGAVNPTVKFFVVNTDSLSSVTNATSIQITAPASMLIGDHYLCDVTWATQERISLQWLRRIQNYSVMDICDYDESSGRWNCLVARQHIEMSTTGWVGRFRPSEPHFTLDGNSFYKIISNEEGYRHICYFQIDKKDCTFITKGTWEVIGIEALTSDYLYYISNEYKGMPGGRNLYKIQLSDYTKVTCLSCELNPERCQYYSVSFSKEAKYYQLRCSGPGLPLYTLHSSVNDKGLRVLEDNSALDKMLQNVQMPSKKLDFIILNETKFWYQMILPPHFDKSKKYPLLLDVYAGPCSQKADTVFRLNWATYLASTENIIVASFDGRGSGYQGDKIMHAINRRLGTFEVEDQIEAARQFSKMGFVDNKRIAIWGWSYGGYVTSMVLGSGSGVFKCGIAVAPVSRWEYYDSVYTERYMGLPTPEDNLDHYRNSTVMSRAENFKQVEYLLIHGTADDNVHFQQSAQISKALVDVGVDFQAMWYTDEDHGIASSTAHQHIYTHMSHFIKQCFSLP
Sequence of Dipeptidyl peptidase 8 (Q6V1X1 whole entry): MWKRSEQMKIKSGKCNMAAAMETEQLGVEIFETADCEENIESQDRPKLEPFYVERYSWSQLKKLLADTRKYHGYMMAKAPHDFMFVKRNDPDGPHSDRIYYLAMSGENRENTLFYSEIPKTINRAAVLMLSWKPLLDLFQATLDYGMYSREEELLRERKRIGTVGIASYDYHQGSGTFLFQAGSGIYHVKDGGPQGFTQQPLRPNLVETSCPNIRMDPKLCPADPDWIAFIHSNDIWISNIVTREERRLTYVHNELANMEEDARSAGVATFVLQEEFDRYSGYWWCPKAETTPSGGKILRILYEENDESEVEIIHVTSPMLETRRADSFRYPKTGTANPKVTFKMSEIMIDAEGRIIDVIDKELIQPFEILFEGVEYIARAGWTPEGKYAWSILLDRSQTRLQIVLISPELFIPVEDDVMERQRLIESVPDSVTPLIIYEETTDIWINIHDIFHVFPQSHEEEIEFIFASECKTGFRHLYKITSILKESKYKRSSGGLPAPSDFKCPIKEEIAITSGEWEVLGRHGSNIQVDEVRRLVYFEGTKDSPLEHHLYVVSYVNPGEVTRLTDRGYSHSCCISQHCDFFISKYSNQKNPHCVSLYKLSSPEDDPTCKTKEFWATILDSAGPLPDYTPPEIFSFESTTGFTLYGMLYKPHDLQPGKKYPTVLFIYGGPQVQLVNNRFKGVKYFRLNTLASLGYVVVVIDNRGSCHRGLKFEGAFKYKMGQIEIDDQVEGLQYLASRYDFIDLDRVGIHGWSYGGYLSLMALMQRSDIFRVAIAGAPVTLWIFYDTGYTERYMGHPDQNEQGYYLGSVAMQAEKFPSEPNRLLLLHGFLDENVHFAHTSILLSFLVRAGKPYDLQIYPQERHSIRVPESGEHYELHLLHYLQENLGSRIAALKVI
Sequence of Dipeptidyl peptidase 9 (Q86TI2 whole entry): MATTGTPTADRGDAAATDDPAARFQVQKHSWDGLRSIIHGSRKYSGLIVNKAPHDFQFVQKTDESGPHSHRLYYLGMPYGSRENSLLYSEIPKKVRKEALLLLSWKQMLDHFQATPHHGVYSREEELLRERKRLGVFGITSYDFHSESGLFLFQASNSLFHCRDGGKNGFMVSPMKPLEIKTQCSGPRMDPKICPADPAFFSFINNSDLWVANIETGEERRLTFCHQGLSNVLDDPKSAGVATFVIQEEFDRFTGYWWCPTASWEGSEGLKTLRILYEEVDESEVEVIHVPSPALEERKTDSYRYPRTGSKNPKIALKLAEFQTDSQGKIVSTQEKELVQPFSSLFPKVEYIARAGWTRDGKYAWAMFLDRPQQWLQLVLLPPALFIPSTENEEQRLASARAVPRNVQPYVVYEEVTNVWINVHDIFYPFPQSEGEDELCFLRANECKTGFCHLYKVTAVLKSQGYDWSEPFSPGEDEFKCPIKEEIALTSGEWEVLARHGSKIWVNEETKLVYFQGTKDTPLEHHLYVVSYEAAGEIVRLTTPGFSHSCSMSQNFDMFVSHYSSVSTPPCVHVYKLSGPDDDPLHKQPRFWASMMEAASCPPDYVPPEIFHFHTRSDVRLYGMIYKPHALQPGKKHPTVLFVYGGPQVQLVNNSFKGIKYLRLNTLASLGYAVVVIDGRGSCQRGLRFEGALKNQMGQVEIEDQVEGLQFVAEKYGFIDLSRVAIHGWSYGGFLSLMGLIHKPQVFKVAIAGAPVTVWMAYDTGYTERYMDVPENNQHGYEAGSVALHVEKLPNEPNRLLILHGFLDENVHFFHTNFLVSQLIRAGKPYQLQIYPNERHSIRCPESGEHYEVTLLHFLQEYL
T1 sequence (P28843 whole entry): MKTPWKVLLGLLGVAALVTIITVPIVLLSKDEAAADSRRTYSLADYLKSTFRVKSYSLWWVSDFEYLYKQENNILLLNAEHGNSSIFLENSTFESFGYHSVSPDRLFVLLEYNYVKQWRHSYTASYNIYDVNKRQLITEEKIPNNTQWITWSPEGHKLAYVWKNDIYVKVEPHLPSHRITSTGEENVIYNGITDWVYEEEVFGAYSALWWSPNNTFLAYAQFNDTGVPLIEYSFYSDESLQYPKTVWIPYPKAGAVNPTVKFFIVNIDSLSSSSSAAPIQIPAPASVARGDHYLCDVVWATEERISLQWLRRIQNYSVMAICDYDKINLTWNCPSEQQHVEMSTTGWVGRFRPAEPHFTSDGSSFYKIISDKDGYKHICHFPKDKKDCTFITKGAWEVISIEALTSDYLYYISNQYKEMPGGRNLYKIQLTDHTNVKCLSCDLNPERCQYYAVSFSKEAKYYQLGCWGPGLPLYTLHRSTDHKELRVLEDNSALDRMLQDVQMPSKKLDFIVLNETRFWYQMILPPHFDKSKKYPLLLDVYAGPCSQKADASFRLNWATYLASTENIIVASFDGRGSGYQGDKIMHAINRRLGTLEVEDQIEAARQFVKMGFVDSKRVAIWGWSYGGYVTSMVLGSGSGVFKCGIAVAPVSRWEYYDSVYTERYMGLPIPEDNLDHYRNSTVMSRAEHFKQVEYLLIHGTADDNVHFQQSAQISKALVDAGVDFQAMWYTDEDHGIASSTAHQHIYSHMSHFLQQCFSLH

Row | IC50 [1] | IC50 [2] | IC50 [3] | IC50 [7] | SMILES | other results
1 | 0.044 µM | > 100 µM | 5.3 µM | – | N[C@H](C(=O)N1CC[C@H](F)C1)[C@@H](C(=O)N1CCC1)c1ccc(-c2ccc(F)cc2)cc1 | –
2 | 0.013 µM | > 100 µM | 15 µM | – | CN(C)C(=O)[C@@H](c1ccc(-c2ccc(F)cc2F)cc1)[C@H](N)C(=O)N1CC[C@H](F)C1 | –
3 | 0.011 µM | > 100 µM | > 100 µM | – | N[C@H](C(=O)N1CC[C@H](F)C1)[C@@H](C(=O)Nn1cnnn1)c1ccc(-c2ccc(F)cc2)cc1.O=C(O)C(F)(F)F | half-life [4]: 0.2 h; clearance [5]: 55 mL/min/kg; bioavailability [6]: < 1%
4 | 0.099 µM | > 100 µM | 76 µM | – | CC(C)NC(=O)[C@@H](c1ccc(-c2ccc(F)cc2)cc1)[C@H](N)C(=O)N1CC[C@H](F)C1 | –
5 | 1.6 µM | > 100 µM | 2.5 µM | – | CN(C)C[C@@H](c1ccc(-c2ccc(F)cc2)cc1)[C@H](N)C(=O)N1CC[C@H](F)C1 | –
6 | 0.0033 µM | – | 40 µM | – | CN(C)C(=O)[C@@H](c1ccc(-c2ccc(F)cc2)cc1)[C@H](N)C(=O)N1CCC[C@H]1C#N | –
7 | 0.11 µM | > 100 µM | 90 µM | > 100 µM | CCNC(=O)[C@@H](c1ccc(-c2ccc(F)cc2)cc1)[C@H](N)C(=O)N1CC[C@H](F)C1 | –
8 | 0.98 µM | > 100 µM | > 100 µM | > 100 µM | N[C@@H](Cc1ccc(-c2ccc(F)cc2)cc1)C(=O)N1CC[C@H](F)C1 | –
9 | 3.5 µM | > 100 µM | 0.7 µM | – | N[C@H](C(=O)N1CC[C@H](F)C1)[C@@H](CN1CCCC1)c1ccc(-c2ccc(F)cc2)cc1 | –
10 | 0.021 µM | – | 44 µM | – | CN(C)C(=O)[C@@H](c1ccc(-c2ccc(F)c(F)c2)cc1)[C@H](N)C(=O)N1CC[C@H](F)C1 | –
11 | 0.043 µM | – | 57 µM | – | CN(C)C(=O)[C@@H](c1ccc(-c2cccc(C#N)c2)cc1)[C@H](N)C(=O)N1CC[C@H](F)C1 | –
12 | 0.0075 µM | – | 26 µM | – | CN(C)C(=O)[C@@H](c1ccc(-c2ccc(F)cc2)cc1)[C@H](N)C(=O)N1CCCC1.O=C(O)C(F)(F)F | half-life [4]: 2 h; clearance [5]: 16 mL/min/kg; bioavailability [6]: 100%
13 | 0.094 µM | > 100 µM | – | – | N[C@H](C(=O)N1CC[C@H](F)C1)[C@@H](C(=O)NCCO)c1ccc(-c2ccc(F)cc2)cc1 | –
14 | 0.037 µM | > 100 µM | > 100 µM | – | CNC(=O)[C@@H](c1ccc(-c2ccc(F)cc2)cc1)[C@H](N)C(=O)N1CC[C@H](F)C1 | –
15 | 0.071 µM | > 100 µM | 55 µM | – | N[C@H](C(=O)N1CC[C@H](F)C1)[C@@H](C(=O)NC1CC1)c1ccc(-c2ccc(F)cc2)cc1 | –
16 | 0.0091 µM | – | 8.5 µM | – | CN(C)C(=O)[C@@H](c1ccc(-c2ccc(F)cc2)cc1)[C@H](N)C(=O)N1CCSC1 | –
17 | 0.55 µM | > 100 µM | 38 µM | > 100 µM | CN(C)C(=O)[C@@H](c1ccc(-c2ccc(F)cc2)cc1)[C@H](N)C(=O)N1CCCCC1 | –
18 | – | – | – | – | CN(C)C(=O)[C@@H](c1ccc(-c2ccc(F)cc2)cc1)[C@H](N)C(=O)N1CC[C@H](F)C1.O=C(O)C(F)(F)F | IC50 [8]: 0.05 µM; IC50 [9]: 0.071 µM; IC50 [10]: 0.23 µM; half-life [11]: 6.1 h; half-life [12]: 4.7 h; half-life [4]: 3.5 h; clearance [13]: 1.5 mL/min/kg; clearance [14]: 2.4 mL/min/kg; clearance [5]: 4.8 mL/min/kg
19 | 0.11 µM | > 100 µM | > 100 µM | > 100 µM | NC(=O)[C@@H](c1ccc(-c2ccc(F)cc2)cc1)[C@H](N)C(=O)N1CC[C@H](F)C1 | –
20 | 0.0092 µM | – | 5.6 µM | – | N[C@H](C(=O)N1CC[C@H](F)C1)[C@@H](C(=O)N1CCCC1)c1ccc(-c2ccc(F)cc2)cc1.O=C(O)C(F)(F)F | half-life [4]: 1.7 h; clearance [5]: 18 mL/min/kg; bioavailability [6]: 21%

Row | IC50 [1] | IC50 [2] | IC50 [3] | IC50 [7] | SMILES | other results
21 | 0.0066 µM | > 100 µM | > 100 µM | > 100 µM | N[C@H](C(=O)N1CC[C@H](F)C1)[C@@H](C(=O)O)c1ccc(-c2ccc(F)cc2)cc1.O=C(O)C(F)(F)F | half-life [15]: 3.1 h; clearance [5]: 0.25 mL/min/kg; bioavailability [6]: 16%
22 | 0.027 µM | – | 7.1 µM | – | CN(C)C(=O)[C@@H](c1ccc(-c2ccc(F)cc2)cc1)[C@H](N)C(=O)N1CCC(F)(F)C1 | –
23 | 0.0022 µM | > 100 µM | 29 µM | > 100 µM | CN(C)C(=O)[C@@H](c1ccc(-c2cccc(-n3cnnn3)c2)cc1)[C@H](N)C(=O)N1CC[C@H](F)C1.O=C(O)C(F)(F)F | half-life [4]: 0.74 h; clearance [5]: 18 mL/min/kg; bioavailability [6]: < 1%
24 | 0.056 µM | > 100 µM | 11 µM | – | CN(C)C(=O)[C@@H](c1ccc(-c2cc(F)ccc2F)cc1)[C@H](N)C(=O)N1CC[C@H](F)C1 | –
25 | 0.192 µM | > 100 µM | > 100 µM | > 100 µM | N[C@H](C(=O)N1CC[C@H](F)C1)[C@@H](Cn1cnnn1)c1ccc(-c2ccc(F)cc2)cc1 | –
26 | 0.017 µM | > 100 µM | 58 µM | > 100 µM | CN(C)C(=O)[C@@H](c1ccc(-c2ccc(F)cc2)cc1)[C@H](N)C(=O)N1CC(F)C1 | –
27 | 0.029 µM | > 100 µM | 9.4 µM | > 100 µM | CN(C)C(=O)[C@@H](c1ccc(-c2ccc(F)cc2)cc1)[C@H](N)C(=O)N1CC(F)(F)C1 | –
28 | 0.059 µM | > 100 µM | 48 µM | – | CCN(CC)C(=O)[C@@H](c1ccc(-c2ccc(F)cc2)cc1)[C@H](N)C(=O)N1CC[C@H](F)C1 | –
29 | 0.39 µM | > 100 µM | 15 µM | > 100 µM | N[C@H](C(=O)N1CC[C@H](F)C1)[C@@H](CO)c1ccc(-c2ccc(F)cc2)cc1 | –
30 | 0.23 µM | > 100 µM | 75 µM | > 100 µM | CN(C)C(=O)[C@@H](c1ccc(-c2ccc(F)cc2)cc1)[C@H](N)C(=O)N1CCS(=O)(=O)C1 | –
31 | 0.1 µM | > 100 µM | > 100 µM | > 100 µM | CN(C)C(=O)[C@@H](c1ccc(-c2ccc(F)cc2)cc1)[C@H](N)C(=O)N1CCC1 | –
32 | 0.021 µM | > 100 µM | 81 µM | > 100 µM | CN(C)C(=O)[C@@H](c1ccc(-c2cccc(S(C)(=O)=O)c2)cc1)[C@H](N)C(=O)N1CC[C@H](F)C1 | –
33 | 0.045 µM | > 100 µM | > 100 µM | – | CON(C)C(=O)[C@@H](c1ccc(-c2ccc(F)cc2)cc1)[C@H](N)C(=O)N1CC[C@H](F)C1 | –
34 | 0.52 µM | > 100 µM | 77 µM | > 100 µM | CN(C)C(=O)[C@@H](c1ccc(-c2ccc(F)cc2)cc1)[C@H](N)C(=O)N1CCOCC1 | –
35 | 0.067 µM | > 100 µM | > 100 µM | – | CN(C)NC(=O)[C@@H](c1ccc(-c2ccc(F)cc2)cc1)[C@H](N)C(=O)N1CC[C@H](F)C1 | –
36 | 0.22 µM | > 100 µM | 21 µM | > 100 µM | COC(=O)[C@@H](c1ccc(-c2ccc(F)cc2)cc1)[C@H](N)C(=O)N1CC[C@H](F)C1 | –
37 | 0.02 µM | > 100 µM | 43 µM | – | CCN(C)C(=O)[C@@H](c1ccc(-c2ccc(F)cc2)cc1)[C@H](N)C(=O)N1CC[C@H](F)C1 | –
38 | 0.019 µM | > 100 µM | 57 µM | – | CN(C)C(=O)[C@@H](c1ccc(-c2cccc(-[n+]3ccccc3)c2)cc1)[C@H](N)C(=O)N1CC[C@H](F)C1 | –
39 | 0.02 µM | – | 89 µM | > 100 µM | CN(C)C(=O)[C@@H](c1ccc(-c2ccc(-[n+]3ccccc3)cc2)cc1)[C@H](N)C(=O)N1CC[C@H](F)C1 | –
